What was measured:
CD8+ T-cells = test: Immunostimulation assay with anti-CD3/28 stimulated T-cells, CD69 expression by flow cytometry; type: cell-based, human; conditions: T-cell; purified human CD4+ and CD8+ T-cells, 1 µg/ml anti-CD3, 1 µg/ml anti-CD28, 16 hours, surface FACS; read-out: EC50 CD8+
In short: (§1)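 Human CD4+/CD8+ T-cells purified from buffy-coat PBMCs were stimulated with 1 µg/ml anti-CD3 and 1 µg/ml anti-CD28 plus compound (0.001–30 µM) for 16 h at 37 °C. CD69 measured by flow cytometry; DMSO set minimal, CD3/28 Dynabeads maximal activation; EC50 by variable-slope fit.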

CD4+ T-cells = test: as above; type: cell-based, human; conditions: T-cell; purified human CD4+ and CD8+ T-cells, 1 µg/ml anti-CD3, 1 µg/ml anti-CD28, 16 hours, surface FACS; read-out: EC50 CD4+
In short: as §1

Row | SMILES | EC50 (CD8+ T-cells) [µM] | EC50 (CD4+ T-cells) [µM]
1 | CC(O)Cn1c(=O)[nH]c(=O)c2c1nc(-c1ccc(Oc3ccc(OC(F)(F)F)cc3)c(OC(F)(F)F)c1)n2C (stereo not drawn) [Compound 156, 3-(2-hydroxypropyl)-7-methyl-8-(3-(trifluoromethoxy)-4-(4-(trifluoromethoxy)phenoxy)phenyl)-3,7-dihydro-1H-purine-2,6-dione] | 0.1 to 0.5 | 0.1 to 0.5
2 | Cn1c(-c2ccc(Oc3ccc(OC(F)(F)F)cc3F)c(Cl)c2)nc2c1c(=O)[nH]c(=O)n2CC(O)C(F)(F)F (stereo not drawn) [Compound 163, 8-(3-chloro-4-(2-fluoro-4-(trifluoromethoxy)phenoxy)phenyl)-7-methyl-3-(3,3,3-trifluoro-2-hydroxypropyl)-3,7-dihydro-1H-purine-2,6-dione] | 0.1 to 0.5 | 0.1 to 0.5
3 | Cn1c(-c2ccc(Oc3ccc(OC(F)F)cc3)cc2)nc2c1c(=O)[nH]c(=O)n2CC(O)C(F)(F)F (stereo not drawn) [Compound 165, 8-(4-(4-(difluoromethoxy)phenoxy)phenyl)-7-methyl-3-(3,3,3-trifluoro-2-hydroxypropyl)-3,7-dihydro-1H-purine-2,6-dione] | 1 to 5 | 1 to 5
4 | Cn1c(-c2ccc(Oc3ccc(OC(F)(F)F)c(Cl)c3)c(F)c2)nc2c1c(=O)[nH]c(=O)n2CC(O)C(F)(F)F (stereo not drawn) [Compound 166, 8-(4-(3-chloro-4-(trifluoromethoxy)phenoxy)-3-fluorophenyl)-7-methyl-3-(3,3,3-trifluoro-2-hydroxypropyl)-3,7-dihydro-1H-purine-2,6-dione] | 0.1 to 0.5 | 0.1 to 0.5
5 | CC(O)Cn1c(=O)[nH]c(=O)c2c1nc(-c1ccc(Oc3ccc(OC(F)F)cc3)c(Cl)c1)n2C (stereo not drawn) [Compound 178, 8-(3-chloro-4-(4-(difluoromethoxy)phenoxy)phenyl)-3-(2-hydroxypropyl)-7-methyl-3,7-dihydro-1H-purine-2,6-dione] | 0.5 to 1 | 0.5 to 1
6 | CC(O)Cn1c(=O)[nH]c(=O)c2c1nc(-c1ccc(Oc3ccc(Cl)cc3)c(Cl)c1)n2C (stereo not drawn) [Compound 180, 8-(3-chloro-4-(4-chlorophenoxy)phenyl)-3-(2-hydroxypropyl)-7-methyl-3,7-dihydro-1H-purine-2,6-dione] | 0.5 to 1 | 1 to 5
7 | COc1cccc(Oc2ccc(-c3nc4c(c(=O)[nH]c(=O)n4CC(C)O)n3C)cc2)c1 (stereo not drawn) [Compound 182, 3-(2-hydroxypropyl)-8-(4-(3-methoxyphenoxy)phenyl)-7-methyl-3,7-dihydro-1H-purine-2,6-dione] | 1 to 5 | 1 to 5
8 | CC(O)Cn1c(=O)[nH]c(=O)c2c1nc(-c1ccc(Oc3cccc(Cl)c3)cc1)n2C (stereo not drawn) [Compound 184, 8-(4-(3-chlorophenoxy)phenyl)-3-(2-hydroxypropyl)-7-methyl-3,7-dihydro-1H-purine-2,6-dione] | 1 to 5 | 1 to 5
9 | CC(O)Cn1c(=O)[nH]c(=O)c2c1nc(-c1ccc(Oc3ccc(OC(F)(F)F)cc3)c(F)c1)n2C (stereo not drawn) [Compound 188, 8-(3-fluoro-4-(4-(trifluoromethoxy)phenoxy)phenyl)-3-(2-hydroxypropyl)-7-methyl-3,7-dihydro-1H-purine-2,6-dione] | 1 to 5 | 0.1 to 0.5
10 | CC(O)Cn1c(=O)[nH]c(=O)c2c1nc(-c1ccc(Oc3ccccc3OC(F)(F)F)cc1)n2C (stereo not drawn) [Compound 190, 3-(2-hydroxypropyl)-7-methyl-8-(4-(2-(trifluoromethoxy)phenoxy)phenyl)-3,7-dihydro-1H-purine-2,6-dione] | > 5 | > 5
11 | CC(O)Cn1c(=O)[nH]c(=O)c2c1nc(-c1ccc(Oc3cccc(OC(F)(F)F)c3)cc1)n2C (stereo not drawn) [Compound 191, 3-(2-hydroxypropyl)-7-methyl-8-(4-(3-(trifluoromethoxy)phenoxy)phenyl)-3,7-dihydro-1H-purine-2,6-dione] | 0.5 to 1 | 0.5 to 1
12 | CC(O)Cn1c(=O)[nH]c(=O)c2c1nc(-c1ccc(Oc3ccc(OC(F)(F)F)cc3Cl)cc1)n2C (stereo not drawn) [Compound 192, 8-(4-(2-chloro-4-(trifluoromethoxy)phenoxy)phenyl)-3-(2-hydroxypropyl)-7-methyl-3,7-dihydro-1H-purine-2,6-dione] | 1 to 5 | 1 to 5
13 | CC(O)Cn1c(=O)[nH]c(=O)c2c1nc(-c1ccc(Oc3ccc(OC(F)(F)F)cc3F)cc1)n2C (stereo not drawn) [Compound 193, 8-(4-(2-fluoro-4-(trifluoromethoxy)phenoxy)phenyl)-3-(2-hydroxypropyl)-7-methyl-3,7-dihydro-1H-purine-2,6-dione] | 1 to 5 | 1 to 5

Other lines, results leading:

Row | EC50 (CD8+ T-cells) [µM] | EC50 (CD4+ T-cells) [µM] | SMILES
14 | 0.1 to 0.5 | 0.1 to 0.5 | Cn1c(-c2ccc(Oc3ccc(OC(F)(F)F)cc3F)cc2)nc2c1c(=O)[nH]c(=O)n2CC(O)C(F)(F)F (stereo not drawn) [Compound 161, 8-(4-(2-fluoro-4-(trifluoromethoxy)phenoxy)phenyl)-7-methyl-3-(3,3,3-trifluoro-2-hydroxypropyl)-3,7-dihydro-1H-purine-2,6-dione]
15 | > 5 | 0.5 to 1 | Cn1c(-c2ccc(Oc3ccc(OC(F)F)cc3)c(Cl)c2)nc2c1c(=O)[nH]c(=O)n2CC(O)C(F)(F)F (stereo not drawn) [Compound 162, 8-(3-chloro-4-(4-(difluoromethoxy)phenoxy)phenyl)-7-methyl-3-(3,3,3-trifluoro-2-hydroxypropyl)-3,7-dihydro-1H-purine-2,6-dione]
16 | 0.1 to 0.5 | 0.1 to 0.5 | Cn1c(-c2ccc(Oc3ccc(Cl)cc3)cc2)nc2c1c(=O)[nH]c(=O)n2CC(O)C(F)(F)F (stereo not drawn) [Compound 164, 8-(4-(4-chlorophenoxy)phenyl)-7-methyl-3-(3,3,3-trifluoro-2-hydroxypropyl)-3,7-dihydro-1H-purine-2,6-dione]
17 | 0.1 to 0.5 | 0.1 to 0.5 | Cn1c(-c2ccc(Oc3ccc(OC(F)(F)F)cc3)c(F)c2)nc2c1c(=O)[nH]c(=O)n2CC(O)C(F)(F)F (stereo not drawn) [Compound 167, 8-(3-fluoro-4-(4-(trifluoromethoxy)phenoxy)phenyl)-7-methyl-3-(3,3,3-trifluoro-2-hydroxypropyl)-3,7-dihydro-1H-purine-2,6-dione]
18 | 0.5 to 1 | 1 to 5 | CC(O)Cn1c(=O)[nH]c(=O)c2c1nc(-c1ccc(Oc3ccc(S(C)(=O)=O)cc3)cc1)n2C (stereo not drawn) [Compound 176, 3-(2-hydroxypropyl)-7-methyl-8-(4-(4-(methylsulfonyl)phenoxy)phenyl)-3,7-dihydro-1H-purine-2,6-dione]
19 | 0.5 to 1 | > 5 | CC(O)Cn1c(=O)[nH]c(=O)c2c1nc(-c1ccc(Oc3ccc(OC(F)(F)F)cc3)c(Cl)c1)n2C (stereo not drawn) [Compound 179, 8-(3-chloro-4-(4-(trifluoromethoxy)phenoxy)phenyl)-3-(2-hydroxypropyl)-7-methyl-3,7-dihydro-1H-purine-2,6-dione]
20 | 0.1 to 0.5 | 0.1 to 0.5 | CC(O)Cn1c(=O)[nH]c(=O)c2c1nc(-c1ccc(Oc3ccc4ccccc4c3)cc1)n2C (stereo not drawn) [Compound 186, 3-(2-hydroxypropyl)-7-methyl-8-(4-(naphthalen-2-yloxy)phenyl)-3,7-dihydro-1H-purine-2,6-dione]
21 | 1 to 5 | 1 to 5 | CC(O)Cn1c(=O)[nH]c(=O)c2c1nc(-c1ccc(Oc3cccc(C#N)c3)cc1)n2C (stereo not drawn) [Compound 187, 3-(4-(3-(2-hydroxypropyl)-7-methyl-2,6-dioxo-2,3,6,7-tetrahydro-1H-purin-8-yl)phenoxy)benzonitrile]

From patent publication EP4389749A1, “SUBSTITUTED 3,7-DIHYDRO-1H-PURINE-2,6-DIONES AND USE THEREOF” (invIOs GmbH, priority 2022, dated 2024)
